# Test results: article PMC10480161, “Identification of potent and selective N-myristoyltransferase inhibitors of Plasmodium vivax liver stage hypnozoites and schizonts” (Nature Communications, 2023)
# Several values for one entry are separate records, joined by “and”; a condition that tells them apart may be missing. Identical values can stand only once.
# How the values were obtained:
# PvNMT = PvNMT (Plasmodium vivax, UniProt A5K1A2); test: NMT activity assay (CPM detection of free CoA), PvNMT; conditions: for IC50: PvNMT IC50, mean of two or more determinations; for SI: enzyme selectivity, HsNMT IC50/PvNMT IC50
# HsNMT1 = target: T1, HsNMT1 (Homo sapiens, UniProt P30419); test: NMT activity assay (CPM detection of free CoA), HsNMT
# T1 sequence (P30419 1-496): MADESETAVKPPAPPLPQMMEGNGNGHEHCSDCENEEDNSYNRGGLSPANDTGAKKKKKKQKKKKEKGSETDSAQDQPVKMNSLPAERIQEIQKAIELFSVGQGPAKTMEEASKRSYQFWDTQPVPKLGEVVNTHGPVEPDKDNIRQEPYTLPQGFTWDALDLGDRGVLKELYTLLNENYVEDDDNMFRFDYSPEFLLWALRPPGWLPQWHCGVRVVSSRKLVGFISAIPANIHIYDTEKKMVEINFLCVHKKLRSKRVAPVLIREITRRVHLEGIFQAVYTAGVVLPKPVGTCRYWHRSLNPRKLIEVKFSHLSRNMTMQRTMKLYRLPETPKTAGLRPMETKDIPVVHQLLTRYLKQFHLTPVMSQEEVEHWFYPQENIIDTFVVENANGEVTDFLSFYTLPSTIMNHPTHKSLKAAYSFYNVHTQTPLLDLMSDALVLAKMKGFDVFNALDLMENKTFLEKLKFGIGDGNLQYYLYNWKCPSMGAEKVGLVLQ
# HepG2 cells = test: HepG2 cytotoxicity assay (Live/Dead staining); conditions: replicates
# Procedure: Therefore, we assessed cytotoxicity in the human hepatoma HepG2 cell line. We required a PvNMT to HsNMT SI > 20 for further screening. HepG2 cells were exposed to the compounds at concentrations ranging from 1 to 20 µM for […], and toxicity was assessed via live-dead staining.
# The viability of the HepG2 cell line following exposure to the compounds was determined by a Live/Dead cell assay kit (Invitrogen). Briefly, cells were added to a 96-well plate at a concentration of 5000 cells per well, excluding the exterior wells. Cells were exposed to the compounds at different concentrations ranging from 1 to 20 µM. Cells were washed every 24 h and supplemented with fresh doses of compounds. At 72 h post-treatment, 1 µM calcein-AM and 1 µM ethidium homodimer were added to the wells and incubated for 10 min at 37 °C. After washing with PBS, the cells were visualized with fluorescent microscopy (Keyence BZ-X700).
# P. vivax schizonts = test: P. vivax liver stage assay, schizonts; assay type: cell-based, Plasmodium vivax; conditions: for Number of liverstage Schizonts per well: 20 µM, 8 dpi; for IC50: Plasmodium vivax, Hepatocyte, 120 h, primary human hepatocytes, treatment day 5 to 8 post-infection, isolates 2 and 3
# Procedure: We next evaluated the candidate compounds against liver-stage P. vivax (Fig. 5). P. vivax sporozoites were obtained from three independent patient isolates and cultured in primary human hepatocytes from a single donor lot using a 384-well microculture system as described previously. Cells were infected and treated with NMTis at 20 µM beginning day 5 post-infection until day 8 when the infection rates were quantified by fluorescent microscopy.
# Accordingly, we applied dose–response curves of all the tested NMTs on parasite isolates 2 and 3 over concentrations up to 20 µM (Fig. 5c, d, Source Data file). We observed similar kinetics for all inhibitors, with a gradual decrease in parasite load upon increasing the drug concentration. […] Nuclei were counted in each well using DAPI staining as a measure of toxicity (Supplementary Fig. 86, Supplementary Source data). We used the phosphatidylinositol 4-kinase inhibitor (PI4Ki), MMV390048, as a positive control for eliminating schizonts[37],[38].
# (§1) Plasmodium vivax liver stage assays were performed as described previously. Cryopreserved primary human hepatocytes (Cat No. F00995-P) and hepatocyte culture medium (HCM) (InVitroGroTM CP Medium) were obtained from Bioreclamation IVT, Inc., (Baltimore, MD, USA). Briefly, we seeded 384-well plates with primary hepatocytes from a single donor lot at a density of 25,000 cells per well. We then infected the hepatocytes with 14,000 freshly hand-dissected sporozoites per well. Cells were exposed to the compounds at indicated concentrations from day 5 post-infection. We used Pi4K inhibitor MMV390048, at 20 µM, as a positive control to eliminate P. vivax liver schizonts. We then proceeded to feed cultures every day, replacing the compounds until day 8 post-infection. Cells were fixed with 4% PFA, permeabilized with 1% Triton X-100, blocked with 2% BSA, and stained with DAPI and PvUIS4 antibodies to detect schizonts and hypnozoites forms by confocal microscopy. For antibody dilutions, PvUIS4 (kind gift from Dr. Noah Sather, Seattle Children’s Research Institute) was diluted 1:250 and the secondary antibody was anti-mouse AlexaFluor-594 (Cat # A-11005; RRID: AB_2534073) diluted 1:1000. DAPI was diluted 1:2000. The images were processed, analyzed and outlier cells were removed using IMARIS (Bitplane Inc.) image analysis software.
# P. vivax hypnozoites = test: P. vivax liver stage assay, hypnozoites; assay type: cell-based, Plasmodium vivax; conditions: for Hypnozoites per well: Isolate 2, replicate wells (Figure 6d); for Number of liverstage hypnozoites per well: 20 µM, 8 dpi; for IC50: Plasmodium vivax, Hepatocyte, 120 h, primary human hepatocytes, treatment day 5 to 8 post-infection, isolate 2
# Procedure: Finally, we evaluated the NMT-binding compounds against non-developing P. vivax hypnozoites. […] (Fig. 6A). […] We, therefore, evaluated the impact of all tested compounds on P. vivax hypnozoites using these two isolates.
# as §1
# [1] = isolate 1, technical replicates (Fig. 5b)
# [2] = isolate 2, technical replicates (Fig. 5b)
# [3] = isolate 3, technical replicates (Fig. 5b)
# [4] = isolate 1, technical replicates (Fig. 6C)
# [5] = isolate 2, technical replicates (Fig. 6C)
# [6] = isolate 3, technical replicates (Fig. 6C)
# Sequence of PvNMT (A5K1A2 entry or part of it): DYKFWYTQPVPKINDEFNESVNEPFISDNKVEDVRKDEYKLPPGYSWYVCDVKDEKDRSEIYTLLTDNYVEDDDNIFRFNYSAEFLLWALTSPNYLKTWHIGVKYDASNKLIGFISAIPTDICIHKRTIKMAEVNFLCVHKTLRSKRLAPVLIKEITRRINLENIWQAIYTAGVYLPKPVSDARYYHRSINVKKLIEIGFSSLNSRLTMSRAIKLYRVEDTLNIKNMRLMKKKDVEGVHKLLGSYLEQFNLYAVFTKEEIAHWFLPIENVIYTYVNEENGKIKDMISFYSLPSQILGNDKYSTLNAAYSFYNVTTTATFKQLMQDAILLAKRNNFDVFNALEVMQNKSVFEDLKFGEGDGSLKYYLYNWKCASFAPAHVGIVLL
SMILES,IC50 (PvNMT) [nM],SI (PvNMT),IC50 (HsNMT1) [nM],Percentage of live HepG2 cells compared with diluent controls (HepG2 cells; 1 μM),Percentage of live HepG2 cells compared with diluent controls (HepG2 cells; 2.5 μM),Percentage of live HepG2 cells compared with diluent controls (HepG2 cells; 5 μM),Percentage of live HepG2 cells compared with diluent controls (HepG2 cells; 10 μM),Percentage of live HepG2 cells compared with diluent controls (HepG2 cells; 20 μM),Number of liverstage Schizonts per well (P. vivax schizonts; [1]),Number of liverstage Schizonts per well (P. vivax schizonts; [2]),Number of liverstage Schizonts per well (P. vivax schizonts; [3]),"Schizonts per well (P. vivax schizonts; Isolate 2, 1.25 uM)","Schizonts per well (P. vivax schizonts; Isolate 2, 2.5 uM)","Schizonts per well (P. vivax schizonts; Isolate 2, 5 uM)","Schizonts per well (P. vivax schizonts; Isolate 3, 1.25 uM)","Schizonts per well (P. vivax schizonts; Isolate 3, 2.5 uM)","Schizonts per well (P. vivax schizonts; Isolate 3, 5 uM)","Schizonts per well (P. vivax schizonts; Isolate 3, 10 uM)","Schizonts per well (P. vivax schizonts; Isolate 3, 20 uM (Fig. 5c-d))",IC50 (P. vivax schizonts) [nM],further results
Cc1nn(C)c(C)c1CCOc1ccccc1-c1cccc(N2CCNCC2)c1 [Compound 12d],48.5,153.4,7440,110.153% and 106.021%,105.943% and 99.4465%,100.018% and 98.1213%,93.0281% and 104.514%,84.6088% and 84.0111%,1 per well (2×) and 0 per well,2 per well and 0 per well and 1 per well,2 per well and 1 per well,12 per well and 13 per well,11 per well and 9 per well and 15 per well,9 per well and 7 per well and 11 per well,12 per well,6 per well and 11 per well,7 per well and 6 per well,5 per well and 4 per well,2 per well and 1 per well,3300 to 4300,"Schizonts per well (P. vivax schizonts; Isolate 2, 10 uM): 8 per well and 5 per well; schizonts (fold change to DMSO) mean diff (P. vivax schizonts; isolate 1, 20 µM): 0.967; schizonts (fold change to DMSO) mean diff (P. vivax schizonts; isolate 2, 20 µM): 0.9434; schizonts (fold change to DMSO) mean diff (P. vivax schizonts; isolate 3, 20 µM): 0.8977; Hypnozoites per well (P. vivax hypnozoites; 1.25 uM): 11 and 8 and 9; Hypnozoites per well (P. vivax hypnozoites; 2.5 uM): 7 (2×) and 8; Hypnozoites per well (P. vivax hypnozoites; 5 uM): 5 (2×) and 7; Hypnozoites per well (P. vivax hypnozoites; 10 uM): 3 (2×) and 2; Number of liverstage hypnozoites per well (P. vivax hypnozoites; [4]): 1 per well (2×) and 0 per well; Number of liverstage hypnozoites per well (P. vivax hypnozoites; [5]): 3 per well and 0 per well and 1 per well; Number of liverstage hypnozoites per well (P. vivax hypnozoites; [6]): 0 per well; Hypnozoites per well (P. vivax hypnozoites; 20 uM): 3 and 0 and 1; IC50 (P. vivax hypnozoites): 4700 nM; hypnozoites (fold change to DMSO) mean diff (P. vivax hypnozoites; isolate 1, 20 µM): 0.939; hypnozoites (fold change to DMSO) mean diff (P. vivax hypnozoites; isolate 2, 20 µM): 0.862"
Cc1nn(C)c(C)c1CCOc1cc(F)ccc1-c1cccc(N2CCNCC2)c1 [Compound 12f],15.9,43.9,699,101.889% and 101.421%,101.941% and 101.11%,95.3928% and 101.733%,95.3148% and 109.373%,87.3113% and 87.6751%,0 per well,1 per well and 0 per well (2×),3 per well and 2 per well,12 per well and 13 per well and 17 per well,10 per well and 9 per well and 15 per well,8 per well and 9 per well and 11 per well,11 per well,10 per well and 12 per well,7 per well and 5 per well,3 per well and 5 per well,3 per well and 2 per well,3300 to 4300,"schizonts (fold change to DMSO) mean diff (P. vivax schizonts; isolate 1, 20 µM): 1.000; schizonts (fold change to DMSO) mean diff (P. vivax schizonts; isolate 2, 20 µM): 0.9811; schizonts (fold change to DMSO) mean diff (P. vivax schizonts; isolate 3, 20 µM): 0.8295; Hypnozoites per well (P. vivax hypnozoites; 1.25 uM): 4 (2×) and 2; Hypnozoites per well (P. vivax hypnozoites; 2.5 uM): 3; Hypnozoites per well (P. vivax hypnozoites; 5 uM): 2 and 3 (2×); Hypnozoites per well (P. vivax hypnozoites; 10 uM): 1; Number of liverstage hypnozoites per well (P. vivax hypnozoites; [4]): 1 per well (2×) and 0 per well; Number of liverstage hypnozoites per well (P. vivax hypnozoites; [5]): 1 per well (2×) and 0 per well; Number of liverstage hypnozoites per well (P. vivax hypnozoites; [6]): 0 per well; Hypnozoites per well (P. vivax hypnozoites; 20 uM): 1 (2×) and 0; IC50 (P. vivax hypnozoites): 1500 nM; hypnozoites (fold change to DMSO) mean diff (P. vivax hypnozoites; isolate 1, 20 µM): 0.939; hypnozoites (fold change to DMSO) mean diff (P. vivax hypnozoites; isolate 2, 20 µM): 0.931"
c1cncc(CCOc2cccnc2-c2cccc(N3CCNCC3)c2)c1 [Compound 12g],104,152.8,15900,99.9402% and 99.6024%,99.7323% and 98.2512%,98.4851% and 90.6374%,86.6876% and 91.5989%,78.4502% and 78.1644%,0 per well,3 per well and 4 per well and 6 per well,3 per well,10 per well and 11 per well and 19 per well,11 per well and 12 per well and 16 per well,6 per well and 8 per well and 11 per well,13 per well and 11 per well,7 per well and 6 per well,8 per well and 4 per well,5 per well,3 per well,2200 to 3100,"Schizonts per well (P. vivax schizonts; Isolate 2, 20 uM (Fig. 5c-d)): 3 per well and 4 per well and 6 per well; schizonts (fold change to DMSO) mean diff (P. vivax schizonts; isolate 1, 20 µM): 1.000; schizonts (fold change to DMSO) mean diff (P. vivax schizonts; isolate 2, 20 µM): 0.7547; schizonts (fold change to DMSO) mean diff (P. vivax schizonts; isolate 3, 20 µM): 0.7955; Hypnozoites per well (P. vivax hypnozoites; 1.25 uM): 5 and 0 and 3; Hypnozoites per well (P. vivax hypnozoites; 2.5 uM): 3 and 4 and 0; Hypnozoites per well (P. vivax hypnozoites; 5 uM): 1 and 2 and 0; Hypnozoites per well (P. vivax hypnozoites; 10 uM): 1 and 0 (2×); Number of liverstage hypnozoites per well (P. vivax hypnozoites; [4]): 1 per well and 0 per well (2×); Number of liverstage hypnozoites per well (P. vivax hypnozoites; [5]): 1 per well and 0 per well (2×); Number of liverstage hypnozoites per well (P. vivax hypnozoites; [6]): 0 per well; Hypnozoites per well (P. vivax hypnozoites; 20 uM): 1 and 0 (2×); IC50 (P. vivax hypnozoites): 1200 nM; hypnozoites (fold change to DMSO) mean diff (P. vivax hypnozoites; isolate 1, 20 µM): 0.785; hypnozoites (fold change to DMSO) mean diff (P. vivax hypnozoites; isolate 2, 20 µM): 0.966"
